In PMC11823594, “Durlobactam in combination with β-lactams to combat Mycobacterium abscessus” (Antimicrobial Agents and Chemotherapy, 2024):
Values after ≈ are worked out from the molar mass of the structure shown. Like-named read-outs stand apart in the source and are kept apart here.

How the values were obtained:
Mab ATCC 19977 strain = assay: MIC testing (CLSI, Middlebrook 7H9 broth); format: cell-based, Mycobacterium abscessus; conditions: for MIC: Mycobacteroides abscessus, read-out: MIC, alone
PBP B = PBP B (Mycobacterium abscessus, UniProt B1MP31); assay: Steady-state kinetics with nitrocefin (Ki,app); format: biochemical;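 for Ratio of fCss,avg to Ki,app, PBP B: Parenthesised value is the fCss,avg to Ki,app ratio where above 1 means target likely hit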
Method: (§1) Steady-state kinetic studies were conducted using purified LDTs and PBPs (LDT1-5, PBP B, PBP-lipo, and DDC) as previously described ([20]). The assays were performed using a BioTek Synergy2 multimode reader in conjunction with Gen5 analysis software. […] To determine reaction velocities, a 0.25 cm path length was employed. The steady-state kinetic parameters (Vmax, kcat, and Km) were obtained by fitting the data to the Henri-Michaelis-Menten equation using a nonlinear least-squares fit in Origin 8.1 software (OriginLab, Northampton, MA). The reaction rate (v) at a given substrate concentration ([S]) was calculated according to the following equations: […]
(§2) Changes in absorbance at 482 nm were measured over a period of 0–30 min for each concentration of β-lactams and BLIs. Data were linearized using a Dixon plot, plotting the inverse changes in absorbance (1/ΔA) against the concentrations of β-lactams and BLIs. The observed Ki,app was determined directly from the Dixon plot, and these values were corrected for substrate concentration and affinity for the LDT using the following equation:
(§3) Ki,app=observed Ki,app/1+[NCF]/Km NCF

[1] = system: Mycobacterium abscessus ATCC 19977 strain; assay: Morphological changes by flow cytometry and confocal microscopy; format: cell-based; conditions: clinically relevant unbound concentrations (fCss,ave), 24 h
Method: Flow cytometry was employed to evaluate morphological changes in individual bacterial cells following PBP-lipo inactivation after 24 h of β-lactam treatment. The bacterial cells were stained using the BacLight kit L7012 (Thermo Fisher Scientific, Waltham, MA), containing SYTO 9 and propidium iodide (PI). Analysis was performed using a CytoFLEX flow cytometer (Beckman Coulter, CA), with data processed using CytExpert software.
Bacterial morphological changes resulting from PBP-lipo inactivation were investigated using an ImageXpress Micro Confocal Microscope (Molecular Devices, CA). The staining procedures applied to the samples mirrored those used for flow cytometry. Stained bacterial cells were placed in optically clear flat-bottom 96-well plates, and observations were conducted at 60× magnification. Cell length measurements were obtained through automated image analysis using MetaXpress 6 software.

Mab ATCC 19977 = assay: Static drug-concentration time-kill (SCTK) assay with CART analysis; format: cell-based, Mycobacterium abscessus; conditions: clinically achievable concentrations, over 10 days; AVI 4 mg/L; DUR 12 mg/L + SUL 7 mg/L
LDT2 [2] = target: T1, LDT2 (Mycobacterium abscessus, UniProt B1MMQ4); assay: Steady-state kinetics with nitrocefin (Ki,app); format: biochemical; conditions: for Ki: nitrocefin at 5 × Km, read-out: Ki,app LDT2 (converted)
Method: (§4) Steady-state kinetic studies were conducted using purified LDTs and PBPs (LDT1-5, PBP B, PBP-lipo, and DDC) as previously described ([20]). The assays were performed using a BioTek Synergy2 multimode reader in conjunction with Gen5 analysis software. Increasing concentrations of NCF (Δε482 = 17,400 M^⁻¹ cm^⁻¹) were used, while fixed concentrations of the LDTs and PBPs were monitored for changes in absorbance at 482 nm over a time period of 0 to 10 min. To determine reaction velocities, a 0.25 cm path length was employed. The steady-state kinetic parameters (Vmax, kcat, and Km) were obtained by fitting the data to the Henri-Michaelis-Menten equation using a nonlinear least-squares fit in Origin 8.1 software (OriginLab, Northampton, MA). The reaction rate (v) at a given substrate concentration ([S]) was calculated according to the following equations: […]
as §2, with “To determine the apparent inhibition constants (Ki,app) for β-lactams and BLIs, the following experimental condition was employed: NCF as a substrate at a concentration of 5 × Km, LDT/ PBP enzymes with fixed concentration, and β-lactams and BLIs with various concentrations. Changes” for “Changes”
as §3

LDT1 = LDT1 (Mycobacterium abscessus, UniProt B1MDC1); assay: Steady-state kinetics with nitrocefin (Ki,app); format: biochemical; conditions: for Ki: nitrocefin at 5 × Km, read-out: Ki,app LDT1 (converted)
Method: as §4
as §2, with “To determine the apparent inhibition constants (Ki,app) for β-lactams and BLIs, the following experimental condition was employed: NCF as a substrate at a concentration of 5 × Km, LDT/ PBP enzymes with fixed concentration, and β-lactams and BLIs with various concentrations. Changes” for “Changes”
as §3

[3] = Predicted average unbound steady-state plasma concentration (fCss,avg) at clinically relevant doses; parameters: species or system human
DDC = DDC (Mycobacteroides abscessus, UniProt B1MDJ1); assay: Steady-state kinetics with nitrocefin (Ki,app); format: biochemical; conditions: in parentheses in Table 3;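 note: Parenthesised value is the fCss,avg to Ki,app ratio where above 1 means target likely hit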
Method: as §1, §2, §3

LDT5 = LDT5 (Mycobacterium abscessus, UniProt B1MM58); assay: Steady-state kinetics with nitrocefin (Ki,app); format: biochemical; conditions: in parentheses in Table 3
Method: as §1, §2, §3

LDT3 = LDT3 (Mycobacterium abscessus, UniProt B1MHQ4); assay: Mass spectrometry of covalent adduct formation; format: binding; conditions: protein:drug 1:20, 2 h; mass accuracy ±5 Da; (−) = no change
Method: Truncated sequences of LDT1-5, DDC, PBP B, and PBP-lipo (Δ1–41) were generated by Celtek Biosciences and cloned into the pET28(a) + vector with a tobacco etch virus (TEV) protease cleavage site before the start codon. Clones were transformed into Escherichia coli BL21 (DE3) and grown to an OD600 of 0.6–0.8. Protein expression was induced with 0.25 mM isopropyl β-d-1-thiogalactopyranoside (IPTG) and incubated for 18 h at 18°C. Cell pellets were collected and stored at −20°C overnight, then resuspended in a buffer containing 50 mM Tris (pH 8.0), 400 mM sodium chloride, and 1 mM Tris (2-carboxyethyl) phosphine hydrochloride (TCEP), followed by sonication and centrifugation. The supernatant was purified using a His Prep FF 16/10 column (GE Healthcare) and eluted with 500 mM imidazole. Eluted protein was dialyzed overnight at 4°C in a buffer with 50 mM Tris (pH 8.0), 150 mM sodium chloride, and 0.5 mM TCEP in the presence of His-tagged TEV protease. To remove the His tag, the mixture was passed over the His Prep FF 16/10 column again.
The purified proteins listed above were incubated at room temperature with β-lactams or BLIs at a molar ratio of 1:20 for 2 h. The reactions were then quenched with acetonitrile and diluted to 1 mL with 0.1% formic acid in water. Samples were analyzed using a quadrupole time-of-flight (Q-TOF) Waters Synapt-G2-Si electrospray ionization mass spectrometer (ESI-MS) and a Waters Acquity H class ultra-performance liquid chromatography (UPLC) system, equipped with a BEH C18 1.7 µm column (2.1 × 50 mm). The MS was tuned with the following settings: capillary voltage set at 3 kV, sampling cone at 35 V, source offset at 35, source temperature of 100°C, desolvation temperature of 500°C, cone gas flow rate at 100 L/h, desolvation gas flow rate at 800 L/h, and nebulizer set at 6.0. The mobile phases consisted of 0.1% formic acid in water and 0.1% formic acid in 100% acetonitrile, with gradient elution from 10% to 90% of […] over 11 min. The system’s mass accuracy was ±5 Da.

LDT4 = LDT4 (Mycobacterium abscessus, UniProt B1MKW1); assay: Steady-state kinetics with nitrocefin (Ki,app); format: biochemical; conditions: in parentheses in Table 3
Method: as §4
as §2, with “To determine the apparent inhibition constants (Ki,app) for β-lactams and BLIs, the following experimental condition was employed: NCF as a substrate at a concentration of 5 × Km, LDT/ PBP enzymes with fixed concentration, and β-lactams and BLIs with various concentrations. Changes” for “Changes”
as §3

PBP-lipo [4] = target: T2, PBP-lipo (Mycobacteroides abscessus, UniProt B1MDC3); assay: Steady-state kinetics with nitrocefin (Ki,app); format: biochemical
T2 construct: made in house; host or cells: Escherichia coli BL21 (DE3)
Method: as §4
as §2, with “To determine the apparent inhibition constants (Ki,app) for β-lactams and BLIs, the following experimental condition was employed: NCF as a substrate at a concentration of 5 × Km, LDT/ PBP enzymes with fixed concentration, and β-lactams and BLIs with various concentrations. Changes” for “Changes”
as §3

PBP-lipo [5] = target: T2, PBP-lipo; assay: Bocillin-FL binding assay; conditions: 2 h incubation, 1:10 molar ratio
Method: To analyze the binding of PBP-lipo with β-lactams or BLIs, purified PBP-lipo (4 µg) was incubated with β-lactams or BLIs at a 1:10 molar ratio in a buffer containing 10 mM sodium phosphate (pH 7.4) and 150 mM NaCl. The incubation was carried out for 2 h at room temperature. After the initial incubation, 1 µM Bocillin FL was added to the reaction mixture. The incubation was continued for an additional 3–4 h at 37°C. After incubation, the samples were boiled to denature the proteins. The samples were then subjected to SDS-PAGE. The PBP-lipo:Bocillin complexes were visualized by fluorescence analysis at a wavelength of 488 nm using an Azure 300 gel imaging system. The intensity of the PBP-lipo:Bocillin complex bands was analyzed using GelAnalyzer software. The intensity of the band for PBP-lipo alone (without β-lactams) was set to 1 as the highest intensity. The intensity of each band for PBP-lipo incubated with β-lactams was then normalized by dividing by the intensity of the band for PBP-lipo alone.

LDT2 [6] = target: T1, LDT2; assay: Circular dichroism spectroscopy; format: binding; conditions: 5 µM LDT2, 10 µM β-lactam, 2 h, 25°C
Method: The circular dichroism spectra of LDT2 (5 µM in PBS buffer) were recorded on a circular dichroism spectrometer with a 2 mm path length, both in the absence and presence of 10 µM imipenem, ceftaroline, sulopenem, and cefuroxime at 25°C. To ensure the detection of conformational changes, LDT2 and the β-lactams were incubated at room temperature for 2 h. The contribution of each β-lactam alone was subtracted in each case.

BlaMab = BlaMab (Mycobacterium abscessus, UniProt B1MCI3); assay: Ki,app for the β-lactamase; format: biochemical
[7] = ATCC19977, Mab ATCC 19977, no BLI added, 30°C, 48 h

T1 sequence (B1MMQ4 entry or part of it): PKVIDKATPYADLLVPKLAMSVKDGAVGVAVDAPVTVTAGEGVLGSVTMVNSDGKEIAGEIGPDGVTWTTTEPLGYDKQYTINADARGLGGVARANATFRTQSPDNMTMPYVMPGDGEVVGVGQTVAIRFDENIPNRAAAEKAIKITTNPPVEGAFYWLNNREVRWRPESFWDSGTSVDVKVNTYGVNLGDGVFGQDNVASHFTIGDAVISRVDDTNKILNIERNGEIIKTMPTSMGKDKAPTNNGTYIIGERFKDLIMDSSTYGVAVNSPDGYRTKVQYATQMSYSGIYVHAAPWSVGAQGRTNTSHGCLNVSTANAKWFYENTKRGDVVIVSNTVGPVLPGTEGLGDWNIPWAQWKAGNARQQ
T2 sequence (B1MDC3 entry or part of it): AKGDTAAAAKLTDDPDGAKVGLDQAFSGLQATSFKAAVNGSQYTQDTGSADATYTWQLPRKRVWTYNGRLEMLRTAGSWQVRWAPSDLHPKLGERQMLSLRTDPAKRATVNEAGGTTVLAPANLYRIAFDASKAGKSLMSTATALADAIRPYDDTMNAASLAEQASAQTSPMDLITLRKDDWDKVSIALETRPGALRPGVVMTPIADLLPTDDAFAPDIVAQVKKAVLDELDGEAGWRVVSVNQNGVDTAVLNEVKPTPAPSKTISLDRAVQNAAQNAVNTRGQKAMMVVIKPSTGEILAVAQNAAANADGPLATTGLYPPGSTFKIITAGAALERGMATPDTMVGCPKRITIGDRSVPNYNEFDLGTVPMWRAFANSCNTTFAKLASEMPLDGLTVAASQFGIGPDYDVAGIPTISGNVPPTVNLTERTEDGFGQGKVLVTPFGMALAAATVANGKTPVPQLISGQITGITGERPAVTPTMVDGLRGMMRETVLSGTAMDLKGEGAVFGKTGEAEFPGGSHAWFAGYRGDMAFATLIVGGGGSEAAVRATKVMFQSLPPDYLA
PBP B, sequence (B1MP31 entry or part of it): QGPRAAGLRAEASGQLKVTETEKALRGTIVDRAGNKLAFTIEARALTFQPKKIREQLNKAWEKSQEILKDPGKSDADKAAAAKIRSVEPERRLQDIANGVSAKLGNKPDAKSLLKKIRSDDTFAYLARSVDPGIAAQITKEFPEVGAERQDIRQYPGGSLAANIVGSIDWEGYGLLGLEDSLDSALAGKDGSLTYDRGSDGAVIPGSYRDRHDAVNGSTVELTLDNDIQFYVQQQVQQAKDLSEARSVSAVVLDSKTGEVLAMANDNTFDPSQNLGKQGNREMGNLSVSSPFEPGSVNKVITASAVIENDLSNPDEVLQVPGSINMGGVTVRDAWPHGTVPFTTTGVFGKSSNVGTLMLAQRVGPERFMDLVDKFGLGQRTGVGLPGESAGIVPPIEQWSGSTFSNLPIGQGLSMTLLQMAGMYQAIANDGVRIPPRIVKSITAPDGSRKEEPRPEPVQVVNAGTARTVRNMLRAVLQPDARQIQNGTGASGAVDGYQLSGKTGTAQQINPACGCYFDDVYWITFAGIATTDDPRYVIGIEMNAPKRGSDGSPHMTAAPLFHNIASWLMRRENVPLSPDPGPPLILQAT
LDT1, sequence (B1MDC1 entry or part of it): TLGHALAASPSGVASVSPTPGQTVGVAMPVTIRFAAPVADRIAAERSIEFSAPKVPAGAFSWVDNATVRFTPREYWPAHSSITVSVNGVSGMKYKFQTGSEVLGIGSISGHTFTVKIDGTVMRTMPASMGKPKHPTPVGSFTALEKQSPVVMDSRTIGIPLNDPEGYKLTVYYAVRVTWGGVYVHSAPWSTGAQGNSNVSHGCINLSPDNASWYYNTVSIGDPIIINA
DDC, sequence (B1MDJ1 entry or part of it): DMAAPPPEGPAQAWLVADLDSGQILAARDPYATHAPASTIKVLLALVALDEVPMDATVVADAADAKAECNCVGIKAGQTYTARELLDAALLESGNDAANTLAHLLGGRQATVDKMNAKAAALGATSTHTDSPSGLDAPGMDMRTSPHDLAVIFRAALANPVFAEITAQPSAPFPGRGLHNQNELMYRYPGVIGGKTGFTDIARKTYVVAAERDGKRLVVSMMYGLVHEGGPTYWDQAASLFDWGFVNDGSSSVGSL
BlaMab, sequence (B1MCI3 entry or part of it): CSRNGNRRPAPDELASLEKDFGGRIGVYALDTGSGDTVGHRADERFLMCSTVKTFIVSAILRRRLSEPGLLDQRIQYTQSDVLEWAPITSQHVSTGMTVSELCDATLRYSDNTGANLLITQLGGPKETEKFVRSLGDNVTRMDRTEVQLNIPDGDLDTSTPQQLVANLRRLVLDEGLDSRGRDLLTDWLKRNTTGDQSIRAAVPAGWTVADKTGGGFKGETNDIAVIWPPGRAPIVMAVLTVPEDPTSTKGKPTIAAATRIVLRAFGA
LDT4, sequence (B1MKW1 entry or part of it): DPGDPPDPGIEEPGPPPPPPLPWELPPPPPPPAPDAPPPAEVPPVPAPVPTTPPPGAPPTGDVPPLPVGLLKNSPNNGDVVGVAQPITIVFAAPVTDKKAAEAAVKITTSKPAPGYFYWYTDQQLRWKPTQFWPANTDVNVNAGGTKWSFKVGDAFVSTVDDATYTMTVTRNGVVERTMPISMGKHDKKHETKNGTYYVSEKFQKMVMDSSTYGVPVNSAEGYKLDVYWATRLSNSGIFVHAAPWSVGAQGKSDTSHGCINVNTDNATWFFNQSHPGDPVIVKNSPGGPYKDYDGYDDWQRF
LDT3, sequence (B1MHQ4 entry or part of it): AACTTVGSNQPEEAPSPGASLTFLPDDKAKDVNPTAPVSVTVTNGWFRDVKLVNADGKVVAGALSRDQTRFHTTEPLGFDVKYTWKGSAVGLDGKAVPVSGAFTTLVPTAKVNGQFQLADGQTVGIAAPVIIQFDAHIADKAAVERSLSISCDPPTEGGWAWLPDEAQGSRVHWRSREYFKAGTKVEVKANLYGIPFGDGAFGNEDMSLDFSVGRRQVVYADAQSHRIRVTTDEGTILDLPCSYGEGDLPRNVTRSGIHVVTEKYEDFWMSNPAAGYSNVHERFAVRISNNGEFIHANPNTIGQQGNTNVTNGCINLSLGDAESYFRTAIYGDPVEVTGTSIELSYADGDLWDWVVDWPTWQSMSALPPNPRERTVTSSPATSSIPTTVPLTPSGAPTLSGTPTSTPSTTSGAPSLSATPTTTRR
LDT5, sequence (B1MM58 entry or part of it): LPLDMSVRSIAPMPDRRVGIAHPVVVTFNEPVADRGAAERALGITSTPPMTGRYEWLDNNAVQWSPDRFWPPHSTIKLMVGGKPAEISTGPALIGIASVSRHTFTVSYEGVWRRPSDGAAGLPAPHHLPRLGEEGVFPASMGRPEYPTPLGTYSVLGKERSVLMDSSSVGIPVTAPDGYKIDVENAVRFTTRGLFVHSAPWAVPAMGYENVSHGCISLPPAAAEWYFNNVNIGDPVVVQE

## CO[C@@]1(NC(=O)Cc2cccs2)C(=O)N2C(C(=O)O)=C(COC(N)=O)CS[C@@H]21 [Cefoxitin, cefoxitin]
Mab ATCC 19977 strain; [7]
  MIC: 16 µg/mL (≈ 37.4 µM)

## CC1(C)[C@H](C(=O)O)N2C(=O)C[C@H]2S1(=O)=O [Sulbactam, sulbactam]
PBP B
  Ki: 55.7 µM
[1]
  Morphological change of Mab cells: did not induce noticeable morphological changes
Mab ATCC 19977
  Bacterial killing (log10 reduction) in time-kill: no bacterial killing
LDT2 [2]
  Ki: 0.0857 µM
LDT1
  Ki: 643 µM

## CCO/N=C(\C(=O)N[C@@H]1C(=O)N2C(C(=O)[O-])=C(Sc3nc(-c4cc[n+](C)cc4)cs3)CS[C@H]12)c1nsc(N)n1 [Ceftaroline, ceftaroline]
[3]; median unbound average steady-state plasma concentration, continuous infusion, daily dose DUR 4,000, AVI 1,500, IPM 4,000, CFT 1,800, AMX 1,500, SULO 1,000, CXM 1,500, SUL 4,000, TBP 1,800 mg
  fCss,avg: 7 mg/L
PBP B
  Ki: 2.32 µM
PBP B; in parentheses in Table 3
  Ratio of fCss,avg to Ki,app, PBP B: 5
DDC
  Ratio of fCss,avg to Ki,app, DDC: 0.3
LDT5
  Ratio of fCss,avg to Ki,app, LDT5: 0.1
LDT3
  Observed MW (+ change in mw), LDT3 (44,795): 44,794 (−) Da
LDT2 [2]; in parentheses in Table 3
  Ratio of fCss,avg to Ki,app, LDT2: 10
LDT2 [2]
  Ki: 1.16 µM
LDT1; in parentheses in Table 3
  Ratio of fCss,avg to Ki,app, LDT1: 14
LDT1
  Ki: 0.827 µM
LDT4
  Ratio of fCss,avg to Ki,app, LDT4: 0.1
PBP-lipo [4]
  Ki: 23.2 µM
PBP-lipo [4]; in parentheses in Table 3
  Ratio of fCss,avg to Ki,app, PBP-lipo: 0.5
PBP-lipo [5]
  Binding to PBP-lipo (Bocillin-FL competition): demonstrated binding to PBP-lipo
LDT2 [6]
  Conformational change of LDT2 (CD spectrum): altered its secondary structure
Mab ATCC 19977 strain; ATCC19977, 48 h
  MIC: 16 µg/mL (≈ 26.5 µM)
Mab ATCC 19977 strain; fixed avibactam 4 mg/L
  MIC, + AVI (4 mg/L): 1 to 2 µg/mL
Mab ATCC 19977 strain; fixed durlobactam 1 mg/L + sulbactam 1 mg/L
  MIC, + DUR + SUL (1 mg/L): 2 µg/mL
BlaMab
  Ki: 681 µM

## NCC[C@H](O)C(=O)N[C@@H]1C[C@H](N)[C@@H](O[C@H]2O[C@H](CN)[C@@H](O)[C@H](O)[C@H]2O)[C@H](O)[C@H]1O[C@H]1O[C@H](CO)[C@@H](O)[C@H](N)[C@H]1O [Amikacin, amikacin]
[3]; amikacin doses between 20 and 30 mg/kg
  Average unbound concentration at steady-state: 12 mg/L
Mab ATCC 19977 strain; [7]
  MIC: 16 µg/mL (≈ 27.3 µM)

## CC[C@H]1OC(=O)[C@H](C)[C@@H](O[C@H]2C[C@@](C)(OC)[C@@H](O)[C@H](C)O2)[C@H](C)[C@@H](O[C@@H]2O[C@H](C)C[C@H](N(C)C)[C@H]2O)[C@](C)(OC)C[C@@H](C)C(=O)[C@H](C)[C@@H](O)[C@]1(C)O [Clarithromycin, clarithromycin]
[3]; daily dose of 1000 mg
  Steady-state average unbound concentration: 0.3 mg/L
Mab ATCC 19977 strain; [7]
  MIC: 8 µg/mL (≈ 10.7 µM)
